# Reference: patent publication US9950983B2, “Tricyclic compounds and process for preparation thereof” (Council of Scientific and Industrial Research, priority 2014, dated 2018)
# Tests used:
# [1] = tested on: Ae. aegypti females mosquitoes; test: Mosquito repellence bioassay (protection period, time until the first bite); format: in vivo; conditions: time until first confirmed bite; for Protection period in hrs @dose 0.25 mg/cm^2: dose 0.25 mg/cm^2 on muslin cloth screen over human volunteer's hand; for Protection period in hrs @dose 0.50 mg/cm^2: dose 0.50 mg/cm^2 on muslin cloth screen over human volunteer's hand
# Experimental: Protocol Adopted for the Mosquito Repellence Bioassay
# Mosquito repellence activity was assessed on the basis of protection period (hr) offered by various analogues of Nootkatone against Mosquito bites. The protection period was measured on the basis of the concept “time until the first bite” pioneered by Granette (Comparison of mosquito repellency test under laboratory and field conditions. Granett, P. Proc Ann Meet NJ Mosq Assoc, 1938, vol. 25, 51,). Repellence tests were carried out against 3-5 days old, blood starved but sucrose fed (0.5M solution), Ae. aegypti females mosquitoes, drawn from well-established laboratory colony maintained at 27±1° C. Temperatureand 70±5% Relative humidity. The light intensity was regulated at 300-500 lux for testing against laboratory, colonized Ae. aegypti, a day biting mosquito. Human volunteer's hand covered with polythene disposable gloves was introduced in the cage containing about 200 hungry mosquitoes. Mosquitoes were allowed to bite on the back of the hand through muslin screen stuck over a small window (2 cm×2 cm) cutout in the polythene bag. Various analogues of Nootkatone were loaded on the muslin cloth screen instead of direct skin application so as to avoid the potential risk involved in the evaluation of natural products of unknown mammalian toxicity. All the test solutions were made in Analar grade Acetone The muslin cloth screen was first treated with the analogue taking two doses @0.25 mg/cm^2 and 0.5 mg/cm^2 and the solvent was evaporated before use. Control muslin screen was treated with solvent alone. After introduction of the hand covered with the polythene glove with the treated muslin screen into the mosquito cage, number of mosquito bites received in subsequent 5 minutes were counted. In the event of no bites in the initial 5 minutes exposure, the test hand was exposed repeatedly after every consecutive ½ hr for 5 minutes test till the time a confirmed bite was received. Number of hours before the receipt of a confirmed bite (Techniques for the evaluation of insect repellents. A critical review (Schreck, C. E, Ann Rev Entomol, 1977, vol 22, 101) represented the protection period offered by the test compound. In control rate of mosquito bite was 10-12 bites/min. Above test were repeated with both male and female human volunteers using different mosquito batches. All the tests were carried out at 27±1° C. temperature between 9.00-17.00 hrs.
# [2] = tested on: Formosan subterranean termite (Coptotermes formosanus); conditions: Formosan subterranean termites; Zhu et al., J Chem Ecol 2001; cited from earlier work
Structure (SMILES),Protection period in hrs @dose 0.25 mg/cm^2 [1] [h],Protection period in hrs @dose 0.50 mg/cm^2 [1] [h],lowest effective concentration tested [2] [micrograms/g substrate]
"C[C@H]1CC(=O)C=C2C[C@@H]3[C@H]([C@@H]21)C3(C)C [1e, (1aR,1bS,6aR)-1,1,2-Trimethyl-1a,1b,2,3,6,6a-hexahydrocyclo propa[a]inden-4(1H)-one]",5.22 ± 0.0720,6.46 ± 0.1507,–
"CC1=C2C[C@@H]3[C@H](C2CCC1=O)C3(C)C (stereo partly drawn) [1d, (1aR,6aR)-1,1,5-trimethyl-1a,1b,2,3,6,6a hexahydrocyclopropa[a]inden-4(1H)-one]",5.64 ± 0.1984,6.29 ± 0.0844,–
"C[C@@H]1CC(=O)C=C2C(=O)[C@H]3[C@H](C3(C)C)[C@]21C [1a, (1aR,1bR,2R,6aS)-1,1,1b,2-Tetramethyl-1,1a,1b,2,3,6a-hexahydro-cyclopropa[a]indene-4,6-dione]",4.13 ± 0.0626,5.35 ± 0.0868,–
"CC[C@H]1CC(=O)C=C2C[C@@H]3[C@H]([C@@H]21)C3(C)C [1f, (1aR,1bS,6aR)-2-Ethyl-1,1-dimethyl-1a,1b,2,3,6,6a hexahydrocyclo propa[a]inden-4(1H)-one]",1.53 ± 0.1223,3.48 ± 0.1396,–
"CCOC(=O)[C@H]1[C@@H]2C(=O)C3=CC(=O)C[C@@H](C)[C@]3(C)[C@H]12 [1b, Ethyl(1R,1aS,1bR,2R,6aR)-1b,2-dimethyl-4,6-dioxo-1,1a,1b,2,3,4,6,6a-octahydrocyclopropa[a]indene-1-carboxylate]",1.23 ± 0.040,1.40 ± 0.0549,–
C=C(C)[C@@H]1CCC2=CC(=O)C[C@@H](C)[C@]2(C)C1 [nootkatone],–,–,10
"CC1(C)[C@@H]2CC3=CC(=O)CCC3[C@@H]21 (stereo partly drawn) [1c, (1aR,6aR)-1,1-Dimethyl-1a,1b,2,3,6,6a-hexahydrocyclopropa[a]-inden-4(1H)-one]",3.60 ± 0.0791,5.30 ± 0.088,–
"C[C@@H]1CC(=O)C=C2C(=O)[C@@H]3[C@@H](C3(C)C)[C@]21C (racemic) [Recemic nardoaristolone B, (1aS,1bR,2R,6aR)-1,1,1b,2-Tetramethyl-1,1a,1b,2,3,6a-hexahydrocyclopropa[a]indene-4,6-dione]",3.30 ± 0.0708,5.63 ± 0.1778,–
"CCC[C@H]1CC(=O)C=C2C[C@@H]3[C@H]([C@@H]21)C3(C)C [1g, (1aR,1bS,6aR)-1,1-Dimethyl-2-propyl-1a,1b,2,3,6,6a-hexahydrocyclo propa[a]inden-4(1H)-one]",1.8 ± 0.1490,1.99 ± 0.1137,–
"CC1(C)CC(=O)C=C2C[C@@H]3[C@H]([C@@H]21)C3(C)C [1h, (1aR,1bR,6aR)-1,1,2,2-Tetramethyl-1a,1b,2,3,6,6a-hexahydro cyclo propa[a]inden-4(1H)-one]",2.19 ± 0.0716,2.38 ± 0.07567,–
"C=C(C)[C@@H]1CCC2=CC(=O)C[C@@H](C)[C@]2(C)C1 [Natural nootkatone, nootkatone, reference compound]",5.58 ± 0.171,>7,–
"C=C(C)[C@@H]1CCC2=CC(=O)C[C@@H](C)[C@]2(C)C1 (racemic) [Recemic nootkatone, nootkatone, reference compound]",3.12 ± 0.07,5.06 ± 0.06,–
